Patent US7241795B2, “Synthesis and antimicrobial activity of novel dicationic “reversed amidines”” (The University of North Carolina at Chapel Hill, priority 2000, dated 2007)
≈ marks a conversion by molar mass, not a printed value. Read-outs that look alike come from different tables or passages of the source.

Key:
Crytococcus neoformans = test: Expanded fungus panel, broth macrodilution (MIC/MFC), yeast; assay type: cell-based; conditions: Cryptococcus neoformans, Crytococcus neoformans isolate H99
Candida albicans = test: Antifungal broth macrodilution susceptibility testing (MIC/MFC), yeast; assay type: cell-based; conditions: for MIC80 / MIC / MFC: Candida albicans; for MIC80: 80% of inoculum inhibited
Aspergillus fumigatus = test: Antifungal broth macrodilution susceptibility testing (MIC/MFC), mold; assay type: cell-based; conditions: for MIC80: 80% of inoculum inhibited
Rhizopus arrhizus = test: Expanded fungus panel, broth macrodilution (MIC/MFC), mold; assay type: cell-based
poly dA•dT = test: DNA thermal melting (ΔTm); assay type: binding
Fusarium solani = test: Expanded fungus panel, broth macrodilution (MIC/MFC), mold; assay type: cell-based
M. tuberculosis H37Rv = test: Microplate Alamar Blue Assay (MABA) in BACTEC 12B medium; assay type: cell-based, Mycobacterium tuberculosis; conditions: Mycobacterium tuberculosis, H37RV; lowest concentration effecting ≧90% reduction of fluorescence; read-out: MTb MIC
d(CGCGAATTCGCG)2 = test: DNA thermal melting (ΔTm); assay type: binding; conditions: oligo = d(CGCGAATTCGCG)2
Aspergillus flavus = test: Expanded fungus panel, broth macrodilution (MIC/MFC), mold; assay type: cell-based; conditions: for MIC: Aspergillus flavus, 100% of inoculum inhibited
other pathogenic fungi = test: Expanded fungus panel, overall; assay type: cell-based
Description: Antifungal Test Organisms. The fungi used in this study for all the compounds in Table 1 included two reference strains C. albicans A39 and Aspergillus fumigatus (strain 168.95).
Medium. Antifungal susceptibility testing was performed with RPMI 1640 medium (Sigma Chemical Co., St. Louis, Mo.) with glutamine, but without sodium bicarbonate and buffered at pH 7.0 with 0.165 M morpholinopropanesulfonic acid.
Antifungal In Vitro Susceptibility Testing. Experiments for determination of MICs of yeasts were performed by the broth macrodilution method according to the recommendations of the National Committee for Clinical Laboratory Standards. See National Committee for Clinical Laboratory Standards. Reference method for broth dilution susceptibility testing of yeasts Document M27-T. Tentative standard, National Committee for Clinical Laboratory Standards, Wayne, Pa., 1995). […] Briefly, this method specifies the use of an inoculum grown at 35° C. and adjusted to a concentration of 0.5×10^3 to 2.5×10^3 CFU/ml, incubation of the culture at 35° C., and reading at 48 h for all yeasts except for C. neoformans, for which the results are interpreted at 72 h. […]
The minimum fungicidal concentration (MFC) was determined by plating 100 μl aliquots from tubes showing complete inhibition of growth on Sabouraud agar plates. The lowest drug concentration that yielded three or fewer colonies was recorded as the MFC. […]

[1] = reference strain C. albicans A39, read-out: C. albicans MFC
[2] = reference strain C. albicans A39, read-out: C. albicans MIC
[3] = Aspergillus fumigatus, strain 168.95, read-out: Aspergillus fumigatus MIC
[4] = Aspergillus flavus isolate 107.96
[5] = Aspergillus flavus isolate 141.88

## Cc1ccc(N=Nc2ccc(-c3ccc(-c4ccc(N=Nc5ccc(C)cn5)cc4C)o3)c(C)c2)nc1 [Compound 6j, 2,5-Bis[2-methyl-4-(5-methyl-2-pyridylimino)aminophenyl]furan]
Crytococcus neoformans
  MFC: > 100 µg/mL
Crytococcus neoformans; 80% of inoculum inhibited
  MIC80: 1.56 µg/mL (≈ 3.21 µM)
Crytococcus neoformans; 100% of inoculum inhibited
  MIC: 1.56 µg/mL (≈ 3.21 µM)
Candida albicans
  activity against C. albicans, in words: quite effective
Candida albicans; Candida albicans isolate 116.98
  MIC80: 1.56 µg/mL (≈ 3.21 µM)
Candida albicans; Candida albicans isolate 116.98, 100% of inoculum inhibited, read-out: MIC 100%
  MIC: 1.56 µg/mL (≈ 3.21 µM)
Candida albicans; Candida albicans isolate 116.98, read-out: MFC
  MFC: > 100 µg/mL
Candida albicans; Candida albicans isolate 117.00
  MIC80: 0.78 µg/mL (≈ 1.6 µM)
Candida albicans; Candida albicans isolate 117.00, 100% of inoculum inhibited, read-out: MIC 100%
  MIC: 3.12 µg/mL (≈ 6.41 µM)
Candida albicans; Candida albicans isolate 117.00, read-out: MFC
  MFC: 25 µg/mL (≈ 51.4 µM)
Candida albicans; Candida albicans isolate 126.97
  MIC80: 1.56 µg/mL (≈ 3.21 µM)
Candida albicans; Candida albicans isolate 126.97, 100% of inoculum inhibited, read-out: MIC 100%
  MIC: 3.12 µg/mL (≈ 6.41 µM)
Candida albicans; Candida albicans isolate 126.97, read-out: MFC
  MFC: 3.12 µg/mL (≈ 6.41 µM)
Candida albicans; Candida albicans isolate 149.97
  MIC80: 0.78 µg/mL (≈ 1.6 µM)
Candida albicans; Candida albicans isolate 149.97, 100% of inoculum inhibited, read-out: MIC 100%
  MIC: 1.56 µg/mL (≈ 3.21 µM)
Candida albicans; Candida albicans isolate 149.97, read-out: MFC
  MFC: 6.25 µg/mL (≈ 12.8 µM)
Candida albicans; Candida albicans isolate 156.97
  MIC80: 1.56 µg/mL (≈ 3.21 µM)
Candida albicans; Candida albicans isolate 156.97, 100% of inoculum inhibited, read-out: MIC 100%
  MIC: 3.15 µg/mL (≈ 6.47 µM)
Candida albicans; Candida albicans isolate 156.97, read-out: MFC
  MFC: > 100 µg/mL
Candida albicans; Candida albicans isolate 159.95
  MIC80: 0.79 µg/mL (≈ 1.62 µM)
Candida albicans; Candida albicans isolate 159.95, 100% of inoculum inhibited, read-out: MIC 100%
  MIC: 1.58 µg/mL (≈ 3.25 µM)
Candida albicans; Candida albicans isolate 159.95, read-out: MFC
  MFC: 3.12 µg/mL (≈ 6.41 µM)
Candida albicans; Candida albicans isolate A39
  MIC80: 1.56 µg/mL (≈ 3.21 µM)
Candida albicans; Candida albicans isolate A39, 100% of inoculum inhibited, read-out: MIC 100%
  MIC: 1.56 µg/mL (≈ 3.21 µM)
Candida albicans; Candida albicans isolate A39, expanded panel, read-out: MFC
  MFC: 25 µg/mL (≈ 51.4 µM)
Candida albicans; read-out: C. albicans MIC
  MIC: ≤ 1 µg/mL
Candida albicans; [1]
  MFC: 10 µg/mL (≈ 20.6 µM)
Candida albicans; [2]
  MIC: ≤ 2 µg/mL
Aspergillus fumigatus
  activity against Aspergillus fumigatus, in words: less effective
Aspergillus fumigatus; Aspergillus fumigatus isolate 119.00, read-out: MFC
  MFC: > 100 µg/mL
Aspergillus fumigatus; Aspergillus fumigatus isolate 153.90
  MFC: >100 µg/mL
Aspergillus fumigatus; Aspergillus fumigatus isolate 165.86
  MFC: >100 µg/mL
Aspergillus fumigatus; Aspergillus fumigatus isolate 168.95, expanded panel
  MFC: >100 µg/mL
Aspergillus fumigatus; Aspergillus fumigatus isolate 182.99
  MFC: >100 µg/mL
Aspergillus fumigatus; Aspergillus fumigatus, Aspergillus fumigatus isolate 119.00
  MIC80: 3.12 µg/mL (≈ 6.41 µM)
Aspergillus fumigatus; Aspergillus fumigatus, Aspergillus fumigatus isolate 119.00, 100% of inoculum inhibited, read-out: MIC 100%
  MIC: 50 µg/mL (≈ 103 µM)
Aspergillus fumigatus; Aspergillus fumigatus, Aspergillus fumigatus isolate 153.90
  MIC80: 3.12 µg/mL (≈ 6.41 µM)
Aspergillus fumigatus; Aspergillus fumigatus, Aspergillus fumigatus isolate 153.90, 100% of inoculum inhibited, read-out: MIC 100%
  MIC: 50 µg/mL (≈ 103 µM)
Aspergillus fumigatus; Aspergillus fumigatus, Aspergillus fumigatus isolate 165.86
  MIC80: 50 µg/mL (≈ 103 µM)
Aspergillus fumigatus; Aspergillus fumigatus, Aspergillus fumigatus isolate 165.86, 100% of inoculum inhibited, read-out: MIC 100%
  MIC: 50 µg/mL (≈ 103 µM)
Aspergillus fumigatus; Aspergillus fumigatus, Aspergillus fumigatus isolate 168.95
  MIC80: 50 µg/mL (≈ 103 µM)
Aspergillus fumigatus; Aspergillus fumigatus, Aspergillus fumigatus isolate 168.95, 100% of inoculum inhibited, read-out: MIC 100%
  MIC: 50 µg/mL (≈ 103 µM)
Aspergillus fumigatus; Aspergillus fumigatus, Aspergillus fumigatus isolate 182.99
  MIC80: 3.12 µg/mL (≈ 6.41 µM)
Aspergillus fumigatus; Aspergillus fumigatus, Aspergillus fumigatus isolate 182.99, 100% of inoculum inhibited, read-out: MIC 100%
  MIC: 50 µg/mL (≈ 103 µM)
Aspergillus fumigatus; [3]
  MIC: 10 µg/mL (≈ 20.6 µM)
Rhizopus arrhizus
  activity versus Rhizopus arrhizus, in words: good fungicidal activity
Rhizopus arrhizus; Rhizopus arrhizus isolate 117.89
  MFC: 1.56 µg/mL (≈ 3.21 µM)
Rhizopus arrhizus; Rhizopus arrhizus isolate 117.89, 80% of inoculum inhibited
  MIC80: 0.78 µg/mL (≈ 1.6 µM)
Rhizopus arrhizus; Rhizopus arrhizus isolate 117.89, 100% of inoculum inhibited
  MIC: 1.56 µg/mL (≈ 3.21 µM)
Poly dA•dT
  DNA Affinities ΔTm (AT): 24.3
Fusarium solani
  activity against Fusarium solani, in words: not very effective
Fusarium solani; Fusarium solani isolate 152.89
  MFC: 50 µg/mL (≈ 103 µM)
Fusarium solani; Fusarium solani isolate 152.89, 80% of inoculum inhibited
  MIC80: 3.12 µg/mL (≈ 6.41 µM)
Fusarium solani; Fusarium solani isolate 152.89, 100% of inoculum inhibited
  MIC: 50 µg/mL (≈ 103 µM)
M. tuberculosis H37Rv
  MIC: 1 to 2 µg/mL (≈ 2.06 to 4.11 µM)
d(CGCGAATTCGCG)2
  DNA Affinities ΔTm (oligo): 10.8
Aspergillus flavus
  activity versus Aspergillus flavus, in words: less effective
Aspergillus flavus; [4]
  MFC: >100 µg/mL
  MIC: 50 µg/mL (≈ 103 µM)
Aspergillus flavus; Aspergillus flavus isolate 107.96, 80% of inoculum inhibited
  MIC 80%: 3.12 µg/mL (≈ 6.41 µM)
Aspergillus flavus; [5]
  MFC: >100 µg/mL
  MIC: 50 µg/mL (≈ 103 µM)
Aspergillus flavus; Aspergillus flavus isolate 141.88, 80% of inoculum inhibited
  MIC 80%: 3.12 µg/mL (≈ 6.41 µM)
Aspergillus flavus; Aspergillus flavus isolate 194.99, 80% of inoculum inhibited
  MIC80: 3.12 µg/mL (≈ 6.41 µM)
Aspergillus flavus; Aspergillus flavus isolate 194.99, read-out: MFC
  MFC: > 100 µg/mL
Aspergillus flavus; Aspergillus flavus isolate 194.99
  MIC: 6.25 µg/mL (≈ 12.8 µM)

## COc1cc(N=Nc2ccccn2)ccc1-c1ccc(-c2ccc(N=Nc3ccccn3)cc2OC)o1 [Compound 6k, 2,5-Bis[2-methoxy-4-(2-pyridylimino)aminophenyl]furan]
Other pathogenic fungi
  activity in the expanded fungus panel, in words: did not show significant activity
Candida albicans
  activity against C. albicans, in words: fungicidal
Candida albicans; read-out: C. albicans MIC
  MIC: ≤ 1 µg/mL
Candida albicans; [1]
  MFC: ≤ 1 µg/mL
Candida albicans; [2]
  MIC: ≤ 2 µg/mL
Aspergillus fumigatus
  activity against Aspergillus fumigatus, in words: fungicidal
Aspergillus fumigatus; Aspergillus fumigatus, read-out: Aspergillus fumigatus MIC
  MIC: ≤ 1 µg/mL
Aspergillus fumigatus; Aspergillus fumigatus, strain 168.95, read-out: Aspergillus fumigatus MFC
  MFC: ≤ 1 µg/mL
Aspergillus fumigatus; [3]
  MIC: 1 µg/mL (≈ 2.04 µM)
Poly dA•dT
  DNA Affinities ΔTm (AT): 19.0
M. tuberculosis H37Rv
  MIC: 1 to 2 µg/mL (≈ 2.04 to 4.08 µM)
d(CGCGAATTCGCG)2
  DNA Affinities ΔTm (oligo): 7.8
